Reference: ChEMBL document CHEMBL2073882, “Wild-type p53-mediated induction of rat mdr1b expression by the anticancer drug daunorubicin” (J Biol Chem, 1998)

Molecular target: ATP-dependent translocase ABCB1 (Rattus norvegicus, UniProt P43245)
Assay: TP_TRANSPORTER: RNase protection assay in vitro, rat hepatoma H-4-II-E cells
Assay type: functional, cell-based

Sequence of ATP-dependent translocase ABCB1 (P43245 whole entry): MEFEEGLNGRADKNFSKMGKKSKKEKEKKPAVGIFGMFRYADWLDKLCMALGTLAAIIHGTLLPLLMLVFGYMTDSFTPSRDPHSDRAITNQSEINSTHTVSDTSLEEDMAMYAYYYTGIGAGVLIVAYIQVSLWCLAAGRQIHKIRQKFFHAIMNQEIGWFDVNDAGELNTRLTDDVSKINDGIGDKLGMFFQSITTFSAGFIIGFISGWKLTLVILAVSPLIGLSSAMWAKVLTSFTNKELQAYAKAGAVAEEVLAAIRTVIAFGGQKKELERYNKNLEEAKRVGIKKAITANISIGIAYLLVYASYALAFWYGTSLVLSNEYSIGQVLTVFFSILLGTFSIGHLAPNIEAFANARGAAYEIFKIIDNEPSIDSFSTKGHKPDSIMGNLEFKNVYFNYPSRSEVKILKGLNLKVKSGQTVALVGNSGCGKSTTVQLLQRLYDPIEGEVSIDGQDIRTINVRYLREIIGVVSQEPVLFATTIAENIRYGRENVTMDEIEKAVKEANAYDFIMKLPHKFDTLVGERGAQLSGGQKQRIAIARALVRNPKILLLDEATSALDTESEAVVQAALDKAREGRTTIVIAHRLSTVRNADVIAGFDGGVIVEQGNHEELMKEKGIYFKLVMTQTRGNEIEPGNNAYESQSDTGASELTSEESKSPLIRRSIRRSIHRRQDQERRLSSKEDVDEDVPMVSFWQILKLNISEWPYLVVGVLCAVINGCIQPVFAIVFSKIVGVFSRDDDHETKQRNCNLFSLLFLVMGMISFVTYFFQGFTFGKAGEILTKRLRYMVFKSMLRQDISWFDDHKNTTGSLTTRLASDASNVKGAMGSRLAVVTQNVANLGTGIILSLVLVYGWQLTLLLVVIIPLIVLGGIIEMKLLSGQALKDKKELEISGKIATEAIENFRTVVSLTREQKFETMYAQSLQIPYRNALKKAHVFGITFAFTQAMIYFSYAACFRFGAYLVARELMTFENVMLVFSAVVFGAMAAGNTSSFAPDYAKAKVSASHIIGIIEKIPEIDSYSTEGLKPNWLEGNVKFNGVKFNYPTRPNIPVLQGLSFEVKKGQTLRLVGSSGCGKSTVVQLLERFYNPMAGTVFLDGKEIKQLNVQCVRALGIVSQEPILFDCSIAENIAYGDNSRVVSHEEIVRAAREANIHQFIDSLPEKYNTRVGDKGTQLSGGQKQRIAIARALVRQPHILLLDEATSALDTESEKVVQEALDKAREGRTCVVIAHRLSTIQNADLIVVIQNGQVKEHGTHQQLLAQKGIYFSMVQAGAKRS

- Activity: inducer [+]
Structure (SMILES): COc1cccc2c1C(=O)c1c(O)c3c(c(O)c1C2=O)C[C@@](O)(C(C)=O)C[C@@H]3O[C@H]1C[C@H](N)[C@H](O)[C@H](C)O1 [DAUNORUBICIN]
